Laboratory results as given in paper PMC9927415, “Tyrosine Kinase Inhibitors Display Potent Activity against Cryptosporidium parvum” (Microbiology Spectrum, 2022).

How the values were obtained:
Assay in all cases: KINOMEscan competitive binding, whole panel
panel of 203 kinases [1] = biological target: T1, panel of 203 kinases (Homo sapiens, UniProt P45984); conditions: 10 µM, n=1; kinase JNK2; read-out: Percent inhibition JNK2
T1 construct: purchased DiscoverX (KINOMEscan)
Method in brief: (§1)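 Read-out is the amount of kinase still captured on an immobilized ATP-site probe after exposure to test compound, expressed as percentage inhibition.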

panel of 203 kinases [2] = biological target: T2, panel of 203 kinases (Homo sapiens, UniProt Q16584); conditions: 10 µM, n=1; kinase MLK3; read-out: Percent inhibition MLK3
T2 construct: purchased DiscoverX (KINOMEscan)
Method in brief: as §1

panel of 203 kinases [3] = biological target: T3, panel of 203 kinases (Homo sapiens, UniProt Q9P2K8, S808G); conditions: 10 µM, n=1; kinase GCN2(Kin.Dom.2,S808G); read-out: Percent inhibition GCN2(Kin.Dom.2,S808G)
T3 construct: purchased DiscoverX (KINOMEscan)
Method in brief: as §1

panel of 203 kinases [4] = biological target: T4, panel of 203 kinases (Homo sapiens, UniProt P54762); conditions: 10 µM, n=1; kinase EPHB1; read-out: Percent inhibition EPHB1
T4 construct: purchased DiscoverX (KINOMEscan)
T4 sequence (P54762 18-984): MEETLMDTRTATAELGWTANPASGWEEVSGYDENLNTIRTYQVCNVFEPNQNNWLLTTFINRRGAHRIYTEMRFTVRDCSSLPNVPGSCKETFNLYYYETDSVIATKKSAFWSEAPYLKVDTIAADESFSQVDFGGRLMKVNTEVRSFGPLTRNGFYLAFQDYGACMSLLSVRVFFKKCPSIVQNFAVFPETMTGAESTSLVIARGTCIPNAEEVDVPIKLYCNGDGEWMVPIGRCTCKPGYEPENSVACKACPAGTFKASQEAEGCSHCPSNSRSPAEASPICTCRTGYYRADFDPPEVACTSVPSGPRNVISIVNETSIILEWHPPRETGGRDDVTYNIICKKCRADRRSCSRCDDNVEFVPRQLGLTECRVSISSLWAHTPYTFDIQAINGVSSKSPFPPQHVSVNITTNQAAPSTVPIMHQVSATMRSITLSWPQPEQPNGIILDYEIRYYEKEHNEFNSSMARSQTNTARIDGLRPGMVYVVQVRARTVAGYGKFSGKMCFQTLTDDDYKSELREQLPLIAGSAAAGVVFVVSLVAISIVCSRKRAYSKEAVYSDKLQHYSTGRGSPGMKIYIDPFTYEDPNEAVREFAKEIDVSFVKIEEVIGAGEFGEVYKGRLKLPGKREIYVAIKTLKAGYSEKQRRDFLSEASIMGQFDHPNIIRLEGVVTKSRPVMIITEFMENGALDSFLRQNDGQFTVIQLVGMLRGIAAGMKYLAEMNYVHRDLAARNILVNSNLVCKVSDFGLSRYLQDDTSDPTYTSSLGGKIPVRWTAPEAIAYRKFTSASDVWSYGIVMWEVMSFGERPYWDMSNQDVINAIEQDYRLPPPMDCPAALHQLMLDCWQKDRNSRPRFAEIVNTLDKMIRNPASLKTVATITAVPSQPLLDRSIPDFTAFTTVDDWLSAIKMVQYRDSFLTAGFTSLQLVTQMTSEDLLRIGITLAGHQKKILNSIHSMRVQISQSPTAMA
Method in brief: as §1

panel of 203 kinases [5] = biological target: T5, panel of 203 kinases (Homo sapiens, UniProt P35916); conditions: 10 µM, n=1; kinase FLT4; read-out: Percent inhibition FLT4
T5 construct: purchased DiscoverX (KINOMEscan)
Method in brief: as §1

panel of 203 kinases [6] = biological target: T6, panel of 203 kinases (Homo sapiens, UniProt O15146); conditions: 10 µM, n=1; kinase MUSK; read-out: Percent inhibition MUSK
T6 construct: purchased DiscoverX (KINOMEscan)
T6 sequence (O15146 24-869): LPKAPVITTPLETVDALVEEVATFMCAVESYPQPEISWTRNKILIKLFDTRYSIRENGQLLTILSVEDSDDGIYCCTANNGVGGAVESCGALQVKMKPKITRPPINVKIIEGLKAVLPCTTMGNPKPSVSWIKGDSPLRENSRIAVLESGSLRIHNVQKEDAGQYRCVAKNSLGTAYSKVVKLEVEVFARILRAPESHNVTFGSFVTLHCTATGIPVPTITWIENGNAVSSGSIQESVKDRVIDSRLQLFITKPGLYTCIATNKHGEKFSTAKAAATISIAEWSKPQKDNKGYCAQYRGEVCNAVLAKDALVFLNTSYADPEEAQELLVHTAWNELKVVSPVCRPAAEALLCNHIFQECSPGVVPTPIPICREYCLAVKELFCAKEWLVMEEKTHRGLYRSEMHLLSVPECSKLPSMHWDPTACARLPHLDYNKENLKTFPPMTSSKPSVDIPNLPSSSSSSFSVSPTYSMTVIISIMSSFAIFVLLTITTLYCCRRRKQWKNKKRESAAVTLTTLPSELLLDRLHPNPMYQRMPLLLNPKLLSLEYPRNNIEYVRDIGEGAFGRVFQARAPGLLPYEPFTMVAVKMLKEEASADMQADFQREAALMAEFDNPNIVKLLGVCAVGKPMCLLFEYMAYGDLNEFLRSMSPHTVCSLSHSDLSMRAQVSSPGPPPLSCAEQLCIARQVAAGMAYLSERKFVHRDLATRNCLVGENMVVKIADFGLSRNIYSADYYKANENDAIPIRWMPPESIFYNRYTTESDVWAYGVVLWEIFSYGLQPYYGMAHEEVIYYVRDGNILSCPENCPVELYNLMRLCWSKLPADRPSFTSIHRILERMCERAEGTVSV
Method in brief: as §1

panel of 203 kinases [7] = biological target: T7, panel of 203 kinases (Homo sapiens, UniProt P53778); conditions: 10 µM, n=1; kinase p38-gamma; read-out: Percent inhibition p38-gamma
T7 construct: purchased DiscoverX (KINOMEscan)
T7 sequence (P53778 1-367): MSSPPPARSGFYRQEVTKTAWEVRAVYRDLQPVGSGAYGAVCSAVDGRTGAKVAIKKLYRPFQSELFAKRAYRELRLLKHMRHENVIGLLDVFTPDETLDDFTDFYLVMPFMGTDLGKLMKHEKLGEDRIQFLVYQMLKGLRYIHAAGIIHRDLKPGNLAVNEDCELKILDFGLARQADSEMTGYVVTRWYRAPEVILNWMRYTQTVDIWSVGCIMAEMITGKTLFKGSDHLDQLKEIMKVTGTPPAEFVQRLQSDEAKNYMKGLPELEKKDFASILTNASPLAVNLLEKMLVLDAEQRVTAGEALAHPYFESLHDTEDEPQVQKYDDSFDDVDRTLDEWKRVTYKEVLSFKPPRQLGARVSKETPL
Method in brief: as §1

T2 sequence (Q16584 whole entry): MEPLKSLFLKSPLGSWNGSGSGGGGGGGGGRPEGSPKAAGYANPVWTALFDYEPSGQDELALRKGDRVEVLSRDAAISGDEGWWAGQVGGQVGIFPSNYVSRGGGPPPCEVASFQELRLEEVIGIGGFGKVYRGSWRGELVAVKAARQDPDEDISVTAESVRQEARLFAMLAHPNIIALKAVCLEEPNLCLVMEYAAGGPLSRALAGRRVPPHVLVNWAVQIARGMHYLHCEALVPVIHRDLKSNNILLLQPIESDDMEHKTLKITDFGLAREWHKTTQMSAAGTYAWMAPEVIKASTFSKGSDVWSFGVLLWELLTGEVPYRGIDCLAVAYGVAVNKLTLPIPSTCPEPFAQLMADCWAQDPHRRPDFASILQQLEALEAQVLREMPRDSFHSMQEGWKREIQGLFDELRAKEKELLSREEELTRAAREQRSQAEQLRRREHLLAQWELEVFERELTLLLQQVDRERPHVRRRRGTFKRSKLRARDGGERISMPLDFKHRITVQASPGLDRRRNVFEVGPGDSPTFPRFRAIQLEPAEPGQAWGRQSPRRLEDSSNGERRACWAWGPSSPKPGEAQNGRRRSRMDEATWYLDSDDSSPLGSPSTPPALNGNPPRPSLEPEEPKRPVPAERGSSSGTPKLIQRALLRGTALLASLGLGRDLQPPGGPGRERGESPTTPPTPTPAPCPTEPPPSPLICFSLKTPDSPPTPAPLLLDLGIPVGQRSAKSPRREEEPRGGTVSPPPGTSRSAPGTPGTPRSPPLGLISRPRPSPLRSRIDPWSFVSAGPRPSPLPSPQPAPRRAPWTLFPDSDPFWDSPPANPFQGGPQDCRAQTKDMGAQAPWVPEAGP
T3 sequence (Q9P2K8 whole entry S808G): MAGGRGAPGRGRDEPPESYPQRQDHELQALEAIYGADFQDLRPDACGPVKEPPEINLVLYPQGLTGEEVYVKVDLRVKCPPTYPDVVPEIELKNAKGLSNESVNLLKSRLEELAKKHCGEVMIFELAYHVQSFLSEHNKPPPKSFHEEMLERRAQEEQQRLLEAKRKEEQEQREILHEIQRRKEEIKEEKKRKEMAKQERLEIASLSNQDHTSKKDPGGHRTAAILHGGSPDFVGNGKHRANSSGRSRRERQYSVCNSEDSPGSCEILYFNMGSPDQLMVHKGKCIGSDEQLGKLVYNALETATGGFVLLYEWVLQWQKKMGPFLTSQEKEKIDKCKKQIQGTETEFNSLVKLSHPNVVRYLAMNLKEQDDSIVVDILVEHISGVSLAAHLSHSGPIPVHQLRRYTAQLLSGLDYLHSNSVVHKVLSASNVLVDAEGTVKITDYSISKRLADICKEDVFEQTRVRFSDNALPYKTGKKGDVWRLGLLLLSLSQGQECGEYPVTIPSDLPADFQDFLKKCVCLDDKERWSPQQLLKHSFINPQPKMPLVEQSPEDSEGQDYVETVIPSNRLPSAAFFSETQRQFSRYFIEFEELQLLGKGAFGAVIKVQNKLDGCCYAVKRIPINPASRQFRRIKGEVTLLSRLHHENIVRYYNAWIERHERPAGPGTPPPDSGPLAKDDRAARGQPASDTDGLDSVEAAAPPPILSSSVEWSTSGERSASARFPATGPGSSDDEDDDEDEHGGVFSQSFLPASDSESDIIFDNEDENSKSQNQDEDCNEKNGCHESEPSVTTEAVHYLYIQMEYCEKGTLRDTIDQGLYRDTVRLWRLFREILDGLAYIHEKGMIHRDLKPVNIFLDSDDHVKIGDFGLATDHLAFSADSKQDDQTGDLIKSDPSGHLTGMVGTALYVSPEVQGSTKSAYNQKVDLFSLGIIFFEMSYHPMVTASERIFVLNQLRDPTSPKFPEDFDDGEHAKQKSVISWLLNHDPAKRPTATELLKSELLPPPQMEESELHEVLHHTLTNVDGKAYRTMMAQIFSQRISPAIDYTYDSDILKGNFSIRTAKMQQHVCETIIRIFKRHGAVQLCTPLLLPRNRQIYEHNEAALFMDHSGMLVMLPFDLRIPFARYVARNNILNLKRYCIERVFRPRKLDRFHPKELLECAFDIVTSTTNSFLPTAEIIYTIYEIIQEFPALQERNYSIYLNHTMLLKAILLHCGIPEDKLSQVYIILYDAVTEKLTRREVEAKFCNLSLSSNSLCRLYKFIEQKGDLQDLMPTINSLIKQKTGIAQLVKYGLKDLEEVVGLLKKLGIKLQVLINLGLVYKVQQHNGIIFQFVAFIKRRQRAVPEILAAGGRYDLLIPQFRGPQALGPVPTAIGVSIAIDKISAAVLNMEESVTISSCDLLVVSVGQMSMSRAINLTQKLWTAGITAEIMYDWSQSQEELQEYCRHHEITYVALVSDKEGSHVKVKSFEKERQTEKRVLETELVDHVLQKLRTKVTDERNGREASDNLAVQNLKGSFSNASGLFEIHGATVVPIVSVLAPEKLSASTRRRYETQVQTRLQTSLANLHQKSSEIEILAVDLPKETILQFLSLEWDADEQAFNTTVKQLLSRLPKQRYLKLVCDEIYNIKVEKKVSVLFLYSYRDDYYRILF
T5 sequence (P35916 25-1363): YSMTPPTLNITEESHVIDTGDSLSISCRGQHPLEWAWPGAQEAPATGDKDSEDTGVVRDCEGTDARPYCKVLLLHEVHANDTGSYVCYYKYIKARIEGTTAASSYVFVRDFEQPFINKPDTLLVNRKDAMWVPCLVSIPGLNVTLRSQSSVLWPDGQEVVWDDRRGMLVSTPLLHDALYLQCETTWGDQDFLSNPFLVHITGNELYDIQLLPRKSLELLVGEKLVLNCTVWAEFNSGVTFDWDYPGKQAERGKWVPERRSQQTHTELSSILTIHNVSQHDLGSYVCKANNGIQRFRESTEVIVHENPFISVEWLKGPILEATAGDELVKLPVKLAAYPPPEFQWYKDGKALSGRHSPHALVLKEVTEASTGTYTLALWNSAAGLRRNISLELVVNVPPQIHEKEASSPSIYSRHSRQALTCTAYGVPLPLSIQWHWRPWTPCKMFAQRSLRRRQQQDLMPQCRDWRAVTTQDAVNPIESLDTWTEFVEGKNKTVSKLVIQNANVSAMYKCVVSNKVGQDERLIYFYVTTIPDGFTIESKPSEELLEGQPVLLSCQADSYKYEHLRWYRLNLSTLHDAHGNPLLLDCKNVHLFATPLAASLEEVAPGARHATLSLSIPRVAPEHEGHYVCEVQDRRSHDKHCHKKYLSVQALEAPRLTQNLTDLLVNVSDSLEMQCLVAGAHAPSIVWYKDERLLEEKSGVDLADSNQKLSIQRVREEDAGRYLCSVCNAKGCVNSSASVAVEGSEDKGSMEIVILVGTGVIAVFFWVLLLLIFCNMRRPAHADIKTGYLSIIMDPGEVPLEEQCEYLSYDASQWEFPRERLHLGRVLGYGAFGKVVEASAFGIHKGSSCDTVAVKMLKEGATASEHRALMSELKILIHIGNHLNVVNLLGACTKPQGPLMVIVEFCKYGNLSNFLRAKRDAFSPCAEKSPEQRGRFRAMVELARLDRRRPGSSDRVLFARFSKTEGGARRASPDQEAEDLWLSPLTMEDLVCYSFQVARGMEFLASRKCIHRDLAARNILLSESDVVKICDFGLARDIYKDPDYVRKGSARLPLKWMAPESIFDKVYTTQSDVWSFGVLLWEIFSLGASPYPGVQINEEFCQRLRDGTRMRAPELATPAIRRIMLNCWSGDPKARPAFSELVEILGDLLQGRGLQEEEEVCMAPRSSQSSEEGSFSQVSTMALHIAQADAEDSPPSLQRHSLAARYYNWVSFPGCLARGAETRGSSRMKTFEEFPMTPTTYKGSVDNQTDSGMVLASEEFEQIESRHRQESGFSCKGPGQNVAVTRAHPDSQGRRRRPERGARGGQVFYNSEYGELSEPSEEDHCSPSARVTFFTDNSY
T1 sequence (P45984 whole entry): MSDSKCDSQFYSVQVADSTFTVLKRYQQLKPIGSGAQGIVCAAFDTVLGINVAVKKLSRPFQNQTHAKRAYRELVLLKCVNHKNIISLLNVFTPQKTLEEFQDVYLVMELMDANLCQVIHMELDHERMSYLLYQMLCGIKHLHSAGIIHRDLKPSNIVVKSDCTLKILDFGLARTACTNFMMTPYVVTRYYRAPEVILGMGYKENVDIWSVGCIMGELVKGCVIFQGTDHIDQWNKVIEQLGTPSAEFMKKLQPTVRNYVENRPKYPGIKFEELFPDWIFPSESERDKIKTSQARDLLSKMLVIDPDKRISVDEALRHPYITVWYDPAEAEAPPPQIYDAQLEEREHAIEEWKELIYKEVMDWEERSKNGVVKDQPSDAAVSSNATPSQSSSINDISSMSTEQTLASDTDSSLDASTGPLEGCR

SMILES: Cc1ccc(O)cc1Nc1ccnc(Nc2cccc(C(N)=O)c2)n1 [Compound 3]
- inhibition at 10 µM (panel of 203 kinases [1]): 0%
- inhibition at 10 µM (panel of 203 kinases [2]): 69.4%
- inhibition at 10 µM (panel of 203 kinases [3]): 0%
- inhibition at 10 µM (panel of 203 kinases [4]): 100%
- inhibition at 10 µM (panel of 203 kinases [5]): 99.2%
- inhibition at 10 µM (panel of 203 kinases [6]): 0%
- inhibition at 10 µM (panel of 203 kinases [7]): 0%

SMILES: Cc1ccc(O)cc1N(C)c1ccnc(Nc2cccc(S(N)(=O)=O)c2)n1 [Compound 4]
- inhibition at 10 µM (panel of 203 kinases [1]): 71.3%
- inhibition at 10 µM (panel of 203 kinases [2]): 81%
- inhibition at 10 µM (panel of 203 kinases [3]): 0%
- inhibition at 10 µM (panel of 203 kinases [4]): 100%
- inhibition at 10 µM (panel of 203 kinases [5]): 99.7%
- inhibition at 10 µM (panel of 203 kinases [6]): 0%
- inhibition at 10 µM (panel of 203 kinases [7]): 93%

SMILES: CN1CCN(c2ccc(Nc3nccc(-c4cnn5ncccc45)n3)cc2C#N)CC1 [Compound 1]
- inhibition at 10 µM (panel of 203 kinases [1]): 96.5%
- inhibition at 10 µM (panel of 203 kinases [2]): 0%
- inhibition at 10 µM (panel of 203 kinases [3]): 99.7%
- inhibition at 10 µM (panel of 203 kinases [4]): 99.3%
- inhibition at 10 µM (panel of 203 kinases [5]): 71.9%
- inhibition at 10 µM (panel of 203 kinases [6]): 98.8%
- inhibition at 10 µM (panel of 203 kinases [7]): 0%

SMILES: Clc1ccc(Nc2ncc(-c3ccccc3)s2)cc1 [Compound 10]
- inhibition at 10 µM (panel of 203 kinases [1]): 0%
- inhibition at 10 µM (panel of 203 kinases [2]): 0%
- inhibition at 10 µM (panel of 203 kinases [3]): 0%
- inhibition at 10 µM (panel of 203 kinases [4]): 0%
- inhibition at 10 µM (panel of 203 kinases [5]): 0%
- inhibition at 10 µM (panel of 203 kinases [6]): 0%
- inhibition at 10 µM (panel of 203 kinases [7]): 0%

SMILES: Nc1ncc2c(-c3ccncc3)c[nH]c2n1 [Compound 11]
- inhibition at 10 µM (panel of 203 kinases [1]): 0%
- inhibition at 10 µM (panel of 203 kinases [2]): 82.8%
- inhibition at 10 µM (panel of 203 kinases [3]): 88.5%
- inhibition at 10 µM (panel of 203 kinases [4]): 81.9%
- inhibition at 10 µM (panel of 203 kinases [5]): 0%
- inhibition at 10 µM (panel of 203 kinases [6]): 93.9%
- inhibition at 10 µM (panel of 203 kinases [7]): 0%

SMILES: Fc1cccc(COc2ccc(Nc3ncnc4c3CN(CCN3CCOCC3)CC4)cc2Cl)c1 [Compound 6]
- inhibition at 10 µM (panel of 203 kinases [1]): 0%
- inhibition at 10 µM (panel of 203 kinases [2]): 0%
- inhibition at 10 µM (panel of 203 kinases [3]): 0%
- inhibition at 10 µM (panel of 203 kinases [4]): 0%
- inhibition at 10 µM (panel of 203 kinases [5]): 0%
- inhibition at 10 µM (panel of 203 kinases [6]): 0%
- inhibition at 10 µM (panel of 203 kinases [7]): 0%

SMILES: COc1ccc(Nc2nccc(-c3cnn4ncccc34)n2)cc1 [Compound 2]
- inhibition at 10 µM (panel of 203 kinases [1]): 99.1%
- inhibition at 10 µM (panel of 203 kinases [2]): 75.5%
- inhibition at 10 µM (panel of 203 kinases [3]): 98.2%
- inhibition at 10 µM (panel of 203 kinases [4]): 99.8%
- inhibition at 10 µM (panel of 203 kinases [5]): 70.1%
- inhibition at 10 µM (panel of 203 kinases [6]): 74.8%
- inhibition at 10 µM (panel of 203 kinases [7]): 88.4%

SMILES: C[C@@H](Oc1cc(-c2cnc3ccccn23)sc1C(N)=O)c1ccccc1Cl [Compound 8]
- inhibition at 10 µM (panel of 203 kinases [1]): 0%
- inhibition at 10 µM (panel of 203 kinases [2]): 0%
- inhibition at 10 µM (panel of 203 kinases [3]): 86.6%
- inhibition at 10 µM (panel of 203 kinases [4]): 0%
- inhibition at 10 µM (panel of 203 kinases [5]): 84%
- inhibition at 10 µM (panel of 203 kinases [6]): 0%
- inhibition at 10 µM (panel of 203 kinases [7]): 0%

SMILES: COc1cc(Nc2nccc(-c3sc(N)nc3-c3cccc(NC(=O)c4c(F)cccc4F)c3)n2)cc(OC)c1OC [Compound 7]
- inhibition at 10 µM (panel of 203 kinases [1]): 99%
- inhibition at 10 µM (panel of 203 kinases [2]): 99.8%
- inhibition at 10 µM (panel of 203 kinases [3]): 99.9%
- inhibition at 10 µM (panel of 203 kinases [4]): 100%
- inhibition at 10 µM (panel of 203 kinases [5]): 100%
- inhibition at 10 µM (panel of 203 kinases [6]): 97.2%
- inhibition at 10 µM (panel of 203 kinases [7]): 0%

SMILES: c1ccc(COc2cccc(-c3ccnc4[nH]ccc34)c2)cc1 [Compound 9]
- inhibition at 10 µM (panel of 203 kinases [1]): 0%
- inhibition at 10 µM (panel of 203 kinases [2]): 0%
- inhibition at 10 µM (panel of 203 kinases [3]): 0%
- inhibition at 10 µM (panel of 203 kinases [4]): 0%
- inhibition at 10 µM (panel of 203 kinases [5]): 0%
- inhibition at 10 µM (panel of 203 kinases [6]): 0%
- inhibition at 10 µM (panel of 203 kinases [7]): 0%
